From article PMC12327690, “Secreted LysM proteins are required for niche competition and full virulence in Pseudomonas savastanoi during host plant infection” (PLOS Pathogens, 2025) come the findings set out here.

The target in this assay is T1, LysM3 (Pseudomonas savastanoi, UniProt Q48F89).
T1 construct: gene PSPPH_3810; LysM + M23 domains; pET28a::lysM3 in E. coli BL21(DE3), HisTrap IMAC then SEC
Description: nanoDSF (Tycho NT.[…]) thermal shift. Format: binding. The note with it: 1 mM ligand, 5 µM protein, no Zn2+, 20 mM Hepes pH 8.0, 150 mM NaCl.

T1 sequence (Q48F89 entry or part of it): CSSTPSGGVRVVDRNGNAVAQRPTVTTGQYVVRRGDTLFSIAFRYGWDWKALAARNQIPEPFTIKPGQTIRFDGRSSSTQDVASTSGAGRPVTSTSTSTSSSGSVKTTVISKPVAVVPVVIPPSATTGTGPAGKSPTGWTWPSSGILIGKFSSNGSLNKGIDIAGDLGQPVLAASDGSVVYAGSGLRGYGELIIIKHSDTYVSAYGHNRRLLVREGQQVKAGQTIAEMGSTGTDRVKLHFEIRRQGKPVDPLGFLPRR

As to `CC(=O)N[C@H]1[C@H](O[C@H]2[C@H](O)[C@@H](NC(C)=O)C(O)O[C@@H]2CO)O[C@H](CO)[C@@H](O[C@@H]2O[C@H](CO)[C@@H](O[C@@H]3O[C@H](CO)[C@@H](O)[C@H](O)[C@H]3NC(C)=O)[C@H](O)[C@H]2NC(C)=O)[C@@H]1O` (some centres unmarked) [NAG4, tetra-N-acetylglucosamine], the “Ti with ligand (LysM3 alone 51.4 ± 0.1)” value was 52.9 ± 0.1 °C. With `CC(=O)N[C@H]1[C@H](O[C@H]2[C@H](O)[C@@H](NC(C)=O)[C@H](O[C@H]3[C@H](O)[C@@H](NC(C)=O)C(O)O[C@@H]3CO)O[C@@H]2CO)O[C@H](CO)[C@@H](O[C@@H]2O[C@H](CO)[C@@H](O[C@@H]3O[C@H](CO)[C@@H](O[C@@H]4O[C@H](CO)[C@@H](O)[C@H](O)[C@H]4NC(C)=O)[C@H](O)[C@H]3NC(C)=O)[C@H](O)[C@H]2NC(C)=O)[C@@H]1O` (some centres unmarked) [NAG6, hexa-N-acetylglucosamine], the “Ti with ligand (LysM3 alone 51.4 ± 0.1)” value is 52.7 ± 0.4 °C.
